Test results from US20080138853A1, “Method for evaluating the degree of maturity of corneocytes” (priority 2000, published 2008).

What was measured:
[1] = test system: horny layer of upper arm inside (cornified envelope); experiment: Involucrin-positive CE in experimental rough skin on the inside of the upper arm; format: in vivo, human; details: SDS-induced experimental rough skin, 3 to 4 specimens, non-treated group 0.09 ± 0.04
Source text: A cellophane adhesive tape was adhered on a face (cheek) and an upper arm of an examinee having skin troubles such as rough skin and immediately peeled off. […] The insoluble substances thus obtained was CE.
A result obtained by staining CE originating in the face of a person troubled with rough skin in the manner described above is shown in FIG. 1 (drawing substitute photograph), and shown in FIG. 2 (drawing substitute photograph) is a result obtained by staining CE originating in a horny layer obtained by experimental rough skin induced by sodium dodecylsulfate (SDS) processing or tape stripping on inside of upper arm without any skin troubles.
Further, the proportions of the involucrin-positive CE's in the SDS treated group and the tape stripping group in the experimental rough skin described above are shown in Table 1 in comparison with that of the involucrin-positive CE in the non-processed group (each 3 to 4 specimens).

[2] = test system: human epidermal keratinocytes; experiment: CE formation-promoting effect in cultured epidermal keratinocytes (involucrin immunostaining and Nile Red staining of CE); format: cell-based; details: 100 μM fatty acid in MEM containing 0.1% bovine serum albumin, confluent keratinocytes, cultured one week; growth medium control 15.83 ± 3.49
Source text: Further, culture was continued for one week. […] The insoluble substances thus obtained were CE.

Compound | Proportion of involucrin-positive CE (%) average ± SD [1] [%] | Proportion of involucrin-positive CE (%) average ± SD [2]
CCCCCCCCCCCCOS(=O)(=O)[O-].[Na+] [SDS, sodium dodecylsulfate] | 6.21 ± 2.96 | 
CCCCC/C=C\C/C=C\CCCCCCCC(=O)O [linoleic acid] |  | 0 (not detected) %
CCCCCCCC/C=C\CCCCCCCC(=O)O [oleic acid] |  | 0 (not detected) %
